Reference: paper PMC9643456, “Matching amino acids membrane preference profile to improve activity of antimicrobial peptides” (Communications Biology, 2022)
Read-outs that look alike come from different tables or passages of the source. Square brackets hold non-standard residues; d marks the D form. Ends that are not written are not given here. Peptide text beside a SMILES is read from it. dBta = N[C@H](Cc1csc2ccccc12)C(=O)O

System: human red blood cells
Experiment: Hemolytic activity
Type: cell-based
Procedure: Human red blood cells (Zenbio, North Carolina, USA) and peptides were separately diluted in PBS (blood concentration, 8%). The blood cell and peptide solutions were then mixed in 96-well polyethylene plates (SPL, Gyeonggi-do, Korea) and incubated for 18 h at 37 °C. The final concentration of human red blood cells was 4%, while peptide concentrations were 100 μM, 50 μM, 25 μM, 12.5 μM, 6.25 μM, 3.13 μM, 1.56 μM, and 0.78 μM. After incubation, the plates were centrifuged at 1000 × g for 5 min, and the supernatants were transferred to 96-well polyethylene plates. Hemolysis levels were determined by measuring the absorbance at 540 nm with a SpectraMax plate spectrophotometer (Molecular Devices, California, USA). Control samples were treated with 1% Triton X-100 (for 100% hemolysis) or solution with 0 μM peptide (for 0% hemolysis) and melittin (for positive control). Each experiment was performed in triplicate.

Compound	Hemolysis percent, 25 μM (red cells of human, 18 h, 25)	Hemolysis percent, 50 μM (red cells of human, 18 h, 50)	Hemolysis percent, 100 μM (red cells of human, 18 h)	Hemolysis percent, 50 μM	Hemolysis percent, 25 μM
CC[C@@H](C)[C@@H](NC(=O)[C@@H](Cc1c[nH]c2ccccc12)NC(=O)[C@@H](CC(C)C)NC(=O)[C@@H](CC(C)C)NC(=O)[C@H](N)Cc1csc2ccccc12)C(=O)NCC(=O)N[C@H](CC(C)C)C(=O)N[C@H](CCCNC(=N)N)C(=O)N[C@H](CCCCN)C(=O)N[C@H](CCCCN)C(=O)N[C@H](CCCNC(=N)N)C(N)=O [WCopW16] (H-[dBta][dL][dL][dW][dI]G[dL][dR][dK][dK][dR]-NH2)	2.77%	5.57%	10.59%	–	–
CC[C@@H](C)[C@@H](NC(=O)[C@@H](Cc1c[nH]c2ccccc12)NC(=O)[C@H](NC(=O)[C@@H](CC(C)C)NC(=O)[C@H](N)Cc1c[nH]c2ccccc12)C(C)C)C(=O)N[C@H](Cc1c[nH]c2ccccc12)C(=O)N[C@H](CCCNC(=N)N)C(=O)N[C@H](CCCNC(=N)N)C(=O)N[C@H](CCC(=O)O)C(=O)N[C@H](CCC(N)=O)C(N)=O [WCopW34] (H-[dW][dL][dV][dW][dI][dW][dR][dR][dE][dQ]-NH2)	-0.18%	-0.17%	-0.14%	–	–
CC(C)C[C@@H](NC(=O)[C@H](N)Cc1c[nH]c2ccccc12)C(=O)N[C@@H](C(=O)N[C@H](Cc1c[nH]c2ccccc12)C(=O)N[C@@H](C(=O)N[C@H](Cc1ccc(O)cc1)C(=O)N[C@H](CC(C)C)C(=O)N[C@H](CCCNC(=N)N)C(=O)N[C@H](CCCCN)C(=O)N[C@H](CCCCN)C(=O)N[C@H](CCCNC(=N)N)C(N)=O)C(C)C)C(C)C [WCopWVY2] (H-[dW][dL][dV][dW][dV][dY][dL][dR][dK][dK][dR]-NH2)	3.46%	6.02%	10.12%	–	–
WLLWIALRKKR-NH2 [WCopW2]	8.19%	11.43%	23.10%	–	–
CC(C)C[C@@H](NC(=O)[C@H](N)Cc1c[nH]c2ccccc12)C(=O)N[C@@H](C(=O)N[C@H](Cc1c[nH]c2ccccc12)C(=O)N[C@H](CC(=O)O)C(=O)N[C@H](Cc1c[nH]c2ccccc12)C(=O)N[C@H](CCCNC(=N)N)C(=O)N[C@H](CCCNC(=N)N)C(=O)N[C@H](CCCNC(=N)N)C(N)=O)C(C)C [WCopW38] (H-[dW][dL][dV][dW][dD][dW][dR][dR][dR]-NH2)	–	0.06 ±0.06%	–	0.06%	–
CC(C)[C@@H](NC(=O)[C@H](N)Cc1c[nH]c2ccccc12)C(=O)N[C@@H](C(=O)N[C@H](Cc1c[nH]c2ccccc12)C(=O)N[C@@H](C(=O)N[C@@H](C(=O)N[C@H](Cc1c[nH]c2ccccc12)C(=O)N[C@H](CCCNC(=N)N)C(=O)N[C@H](CCCNC(=N)N)C(=O)N[C@H](CCCNC(=N)N)C(N)=O)C(C)C)C(C)C)C(C)C [WCopW42] (H-[dW][dV][dV][dW][dV][dV][dW][dR][dR][dR]-NH2)	7.14%	16.66%	26.66%	–	–
CC[C@@H](C)[C@@H](NC(=O)[C@@H](CC(C)C)NC(=O)[C@H](N)Cc1c[nH]c2ccccc12)C(=O)N[C@H](Cc1c[nH]c2ccccc12)C(=O)N[C@@H](C(=O)N[C@H](Cc1ccc(O)cc1)C(=O)N[C@H](CCCNC(=N)N)C(=O)N[C@H](CCCCN)C(=O)N[C@H](CCCCN)C(=O)N[C@H](CCCNC(=N)N)C(N)=O)C(C)C [WCopW27] (H-[dW][dL][dI][dW][dV][dY][dR][dK][dK][dR]-NH2)	1.82%	3.95%	7.43%	–	–
CC[C@@H](C)[C@@H](NC(=O)[C@@H](Cc1c[nH]c2ccccc12)NC(=O)[C@@H](CC(C)C)NC(=O)[C@@H](CC(C)C)NC(=O)[C@H](N)Cc1c[nH]c2ccccc12)C(=O)N[C@H](C)C(=O)N[C@H](CC(C)C)C(=O)N[C@H](CCCNC(=N)N)C(=O)N[C@H](CCCCN)C(=O)N[C@H](CCCCN)C(N)=O [WCopW6] (H-[dW][dL][dL][dW][dI][dA][dL][dR][dK][dK]-NH2)	4.12%	7.05%	18.06%	–	–
CC(C)C[C@@H](NC(=O)[C@H](N)Cc1c[nH]c2ccccc12)C(=O)N[C@@H](C(=O)N[C@H](Cc1c[nH]c2ccccc12)C(=O)N[C@H](CO)C(=O)N[C@H](Cc1c[nH]c2ccccc12)C(=O)N[C@H](CCCNC(=N)N)C(=O)N[C@H](CCCNC(=N)N)C(=O)N[C@H](CCCNC(=N)N)C(N)=O)C(C)C [WCopW39] (H-[dW][dL][dV][dW][dS][dW][dR][dR][dR]-NH2)	0.09%	0.06%	0.36%	–	–
CC[C@@H](C)[C@@H](NC(=O)[C@@H](Cc1c[nH]c2ccccc12)NC(=O)[C@@H](CC(C)C)NC(=O)[C@@H](CC(C)C)NC(=O)[C@H](N)Cc1c[nH]c2ccccc12)C(=O)N[C@H](C)C(=O)N[C@H](CC(C)C)C(=O)N[C@H](CCCNC(=N)N)C(=O)N[C@H](CCCCN)C(=O)N[C@H](CCCCN)C(=O)N[C@H](CCCNC(=N)N)C(N)=O [WCopW3] (H-[dW][dL][dL][dW][dI][dA][dL][dR][dK][dK][dR]-NH2)	3.64%	9.36%	13.37%	–	–
CC[C@@H](C)[C@@H](NC(=O)[C@@H](Cc1c[nH]c2ccccc12)NC(=O)[C@@H](CC(C)C)NC(=O)[C@@H](CC(C)C)NC(=O)[C@H](N)Cc1c[nH]c2ccccc12)C(=O)N[C@H](C)C(=O)N[C@H](CC(C)C)C(=O)N[C@H](CCCNC(=N)N)C(=O)N[C@H](CCCCN)C(=O)N[C@H](CCCCN)C(=O)N[C@H](CCCNC(=N)N)C(N)=O [WCopW4] (H-[dW][dL][dL][dW][dI][dA][dL][dR][dK][dK][dR]-NH2)	5.94%	9.85%	18.84%	–	–
CC[C@@H](C)[C@@H](NC(=O)[C@@H](Cc1c[nH]c2ccccc12)NC(=O)[C@H](NC(=O)[C@@H](CC(C)C)NC(=O)[C@H](N)Cc1c[nH]c2ccccc12)C(C)C)C(=O)N[C@H](Cc1ccc(O)cc1)C(=O)N[C@H](CCCNC(=N)N)C(=O)N[C@H](CCCNC(=N)N)C(=O)N[C@H](CCCNC(=N)N)C(N)=O [WCopW33] (H-[dW][dL][dV][dW][dI][dY][dR][dR][dR]-NH2)	3.49%	6.35%	9.93%	–	–
CCCCCCCCCC(=O)N[C@@H](Cc1c[nH]c2ccccc12)C(=O)N[C@H](CC(N)=O)C(=O)N[C@@H](CC(=O)O)C(=O)N[C@@H]1C(=O)NCC(=O)N[C@@H](CCCN)C(=O)N[C@@H](CC(=O)O)C(=O)N[C@H](C)C(=O)N[C@@H](CC(=O)O)C(=O)NCC(=O)N[C@H](CO)C(=O)N[C@@H]([C@H](C)CC(=O)O)C(=O)N[C@@H](CC(=O)c2ccccc2N)C(=O)O[C@@H]1C [Daptomycin, reference compound]	0.01%	0.03%	0.04 ±0.02%	–	0.01 ±0.02%
CC[C@@H](C)[C@@H](NC(=O)[C@@H](Cc1c[nH]c2ccccc12)NC(=O)[C@H](NC(=O)[C@@H](CC(C)C)NC(=O)[C@H](N)Cc1c[nH]c2ccccc12)C(C)C)C(=O)N[C@H](Cc1c[nH]c2ccccc12)C(=O)N[C@H](CCCNC(=N)N)C(=O)N[C@H](CCCNC(=N)N)C(=O)N[C@H](CCC(N)=O)C(=O)N[C@H](CCCNC(=N)N)C(N)=O [WCopW31] (H-[dW][dL][dV][dW][dI][dW][dR][dR][dQ][dR]-NH2)	0.35%	1.82%	6.88%	–	–
